Assay results published in ChEMBL document CHEMBL1201862, “PubChem BioAssay data set” (2004).
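Assay format: 96-well plates, 48-hour exposure. Abbreviation: GI50, concentration required for 50% inhibition of growth.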 Active and inactive are the calls of the source. Cut-off read from the data, not from the text of the source: active = GI50 up to about 1.1 µM and inactive = higher.

Tests used:
Assay in all cases: inhibition of tumour cell growth, NCI panel, 48 h
U-251 = tested on: U-251
MCF7 = tested on: MCF7
HT-29 = tested on: HT-29
MDA-MB-231 = tested on: MDA-MB-231
M14 = tested on: M14
HCT-15 = tested on: HCT-15
SNB-19 = tested on: SNB-19
SR = tested on: SR
OVCAR-3 = tested on: OVCAR-3
HCT-116 = tested on: HCT-116
DU-145 = tested on: DU-145
OVCAR-5 = tested on: OVCAR-5
SK-MEL-5 = tested on: SK-MEL-5
BT-549 = tested on: BT-549
HOP-62 = tested on: HOP-62
TK-10 = tested on: TK-10
LOX IMVI = tested on: LOX IMVI
NCI-H23 = tested on: NCI-H23
NCI-H522 = tested on: NCI-H522
Hs-578T = tested on: Hs-578T

Compound	GI50 (U-251)	GI50 (MCF7)	GI50 (HT-29)	GI50 (MDA-MB-231)	GI50 (M14)	GI50 (HCT-15) [µM]	GI50 (SNB-19)	GI50 (SR)	GI50 (OVCAR-3)	GI50 (HCT-116)	GI50 (DU-145)	GI50 (OVCAR-5)	GI50 (SK-MEL-5)	GI50 (BT-549)	GI50 (HOP-62)	GI50 (TK-10)	GI50 (LOX IMVI)	GI50 (NCI-H23)	GI50 (NCI-H522)	GI50 (Hs-578T)
NC1CC(=O)c2c1sc(Cl)c2Cl (stereo unspecified)	> 100 µM (inactive)	> 100 µM (inactive)	> 100 µM (inactive)	> 100 µM (inactive)	> 100 µM (inactive)	> 100	> 100 µM (inactive)	> 100 µM (inactive)	> 100 µM (inactive)	> 100 µM (inactive)	> 100 µM (inactive)	> 100 µM (inactive)	> 100 µM (inactive)	> 100 µM (inactive)	> 100 µM (inactive)	> 100 µM (inactive)				
CCOC(=O)CCC(NC(=O)c1ccc(N2CCN(c3c(C)nc(N)nc3N)CC2)cc1)C(=O)OCC (stereo unspecified)	0.0845 µM (active)	0.685 µM (active)	3.15 µM (inactive)	> 100 µM (inactive)	1.32 µM (inactive)	3.36	0.514 µM (active)		> 21.2 µM (inactive)	0.0527 µM (active)	> 100 µM (inactive)	> 100 µM (inactive)	0.0923 µM (active)	> 100 µM (inactive)		> 100 µM (inactive)	0.513 µM (active)	0.169 µM (active)	11 µM (inactive)	> 100 µM (inactive)
O=C(CC(C(=O)c1ccoc1)c1ccco1)c1ccco1 (stereo unspecified)	> 100 µM (inactive)	> 100 µM (inactive)	> 100 µM (inactive)	18.6 µM (inactive)	> 100 µM (inactive)	> 100		85.7 µM (inactive)	> 100 µM (inactive)	> 100 µM (inactive)	> 100 µM (inactive)	> 100 µM (inactive)	> 100 µM (inactive)		> 100 µM (inactive)	> 100 µM (inactive)	> 100 µM (inactive)	98.4 µM (inactive)	> 100 µM (inactive)	> 100 µM (inactive)
CC[C@H](C)[C@H]1NC(=O)[C@@H](NC(=O)[C@@H](CC(C)C)N(C)C(=O)C2CCCN2C(=O)[C@H](C)O)[C@@H](C)OC(=O)[C@@H]2Cc3ccccc3CN2C(=O)[C@@H]2CCCN2C(=O)[C@H](CC(C)C)NC(=O)[C@@H](C)C(=O)[C@H](C(C)C)OC(=O)C[C@@H]1O (stereo partly specified)	0.0586 µM (active)	0.0596 µM (active)	0.258 µM (active)	1.04 µM (active)	1.17 µM (inactive)	> 47.2	0.207 µM (active)	0.0811 µM (active)	0.286 µM (active)	0.144 µM (active)	0.341 µM (active)	0.822 µM (active)	0.164 µM (active)		0.385 µM (active)	2.62 µM (inactive)	0.361 µM (active)		0.443 µM (active)	0.314 µM (active)
O=[As](O)(O)c1ccc(/N=N/c2ccc([As](=O)(O)O)cc2)cc1	> 100 µM (inactive)		> 100 µM (inactive)	> 100 µM (inactive)	> 100 µM (inactive)	> 100	> 100 µM (inactive)	> 100 µM (inactive)	> 100 µM (inactive)	> 100 µM (inactive)	> 100 µM (inactive)	> 100 µM (inactive)	> 100 µM (inactive)	> 100 µM (inactive)	> 100 µM (inactive)	> 100 µM (inactive)	> 100 µM (inactive)	> 100 µM (inactive)	> 100 µM (inactive)	> 100 µM (inactive)
COc1cc(C(=O)N(C(=S)OC23CC4CC(CC(C4)C2)C3)c2ccccc2)cc(OC)c1OC	19 µM (inactive)	29.4 µM (inactive)	17.7 µM (inactive)	33.4 µM (inactive)	18.9 µM (inactive)	26.5	34.6 µM (inactive)		28.1 µM (inactive)	16.1 µM (inactive)	58.9 µM (inactive)	26.5 µM (inactive)	16.1 µM (inactive)	33 µM (inactive)	43.7 µM (inactive)	42.8 µM (inactive)		28 µM (inactive)	3.95 µM (inactive)	27.4 µM (inactive)
CSC12c3cc(C)n(-c4ccccc4)c3CC(C)(C)CN1C(=O)C2Oc1ccccc1 (stereo unspecified)	93.5 µM (inactive)	18 µM (inactive)		> 100 µM (inactive)	12.4 µM (inactive)	28.1	> 100 µM (inactive)	11.3 µM (inactive)	> 100 µM (inactive)	12.1 µM (inactive)	> 100 µM (inactive)	> 100 µM (inactive)	22.4 µM (inactive)	85.7 µM (inactive)	> 100 µM (inactive)		17.5 µM (inactive)	27.9 µM (inactive)		
COC(=O)[C@@H](NC(=O)N(CCC#N)CCCN(C(=O)N[C@H](Cc1ccccc1)C(=O)OC)c1ccccc1)C(C)C	> 100 µM (inactive)	> 100 µM (inactive)		> 100 µM (inactive)	> 100 µM (inactive)	86.3	> 100 µM (inactive)		57.8 µM (inactive)	> 100 µM (inactive)	> 100 µM (inactive)	> 100 µM (inactive)	62.2 µM (inactive)	> 100 µM (inactive)	> 100 µM (inactive)	> 100 µM (inactive)	97.3 µM (inactive)	> 100 µM (inactive)	40.4 µM (inactive)	> 100 µM (inactive)
